pIC50, pKi: −log10 of the molar value.
Tests used:
[1] = system: bleeding time from hamster mesentery lesion; assay: Hamster mesentery bleeding time during intravenous infusion; type: in vivo, golden Syrian hamsters
Procedure: Female golden Syrian hamsters (90-150 g) were maintained on food and water ad libitum, but fasted overnight prior to their use in the present experiment. After the administration of anesthesia (65 mg/kg sodium pentobarbital, i.p.), the animals were shaved in preparation for surgery. The trachea was intubated with PE-100 polyethylene tubing to facilitate spontaneous breathing. Cannulation of the right femoral vein was performed to provide an intravenous route for supplemental anesthesia as well as for the administration of various control and experiment agents. A catheter was introduced into the right carotid artery for the continuous monitoring of arterial blood pressure, and a rectal temperature probe was inserted. The animal's body temperature was maintained at 37° C. with a heating pad and lamp.
The shaved abdomen was opened by a mid-line incision and a portion of the small intestine was exteriorized and draped over a lucite pedestal. Exposed tissue was kept warm and moist by continuous superfusion with warmed (37° C.) Mammalian Ringer's Solution. Experimental solutions were infused into the right femoral vein at a rate of 0.199 ml/min with a Harvard pump for a 10 minute period. An arterial vessel (external diameter, 100-200 micrometers) located at the junction of the small intestinal wall and the mesentery was severed 4 minutes after the start of the infusion. Blood was flushed away by the superfusion system and the waste was removed with a vacuum from a well surrounding the viewing pedestal. Bleeding was observed through Zeiss dissecting microscope (20×) and bleeding time was recorded from the time of the cut until the cessation of bleeding by the formation of a hemostatic plug. Each animal was used as its own control with bleeding time determined both during the infusion of saline and the selected experimental agent. […] Four additional animals were infused with trigramin while arterial blood pressure was continuously monitored to determine if it had any direct effect on systemic blood pressure. […]

[2] = system: exposed fibrinogen receptors on alpha-chymotrypsin-treated platelets; assay: 125I-fibrinogen binding to alpha-chymotrypsin-treated platelets; set-up: species or system human; settings: data not shown; read-out: IC50 of inhibition of 125I-fibrinogen binding to alpha-chymotrypsin-treated platelets
Procedure: (§1) The following experiment illustrates that trigramin can inhibit fibrinogen binding to platelets. Human washed platelet suspension was prepared according to the method of Mustard et al., Brit. J. Haemat. 22:193-204 (1972) and suspended in Tyrode's albumin solution (pH 7.35) containing 3.5 mg/ml bovine serum albumin (Sigma, Fraction V). To 420 microliters of this platelet suspension (about 5×10^8 platelets/ml) was added 10 microliters of ^125 I-fibrinogen. An amount of trigramin was added to the suspension, followed 3 minutes later by 10 microliters ADP (final concentration 10 micromolar). Following addition of ADP, the platelet suspension was gently shaken and incubated for about another 10 minutes. Then, 400 microliters of the platelet suspension were centrifuged through silicone oil at 15,000 g in an Eppendorf centrifuge. The amount of ^125 I-fibrinogen bound to the platelet pellet was measured. Nonspecific binding of fibrinogen was measured in the presence of 6 mM EDTA. The IC50 or 50% inhibition of fibrinogen binding was determined.
(§2) Platelet suspension was prepared as above. Platelets treated with alpha chymotrypsin (Sigma, grade IS) were prepared as described by Kornecki et al., J. Biol. Chem. 258:9349-9356 (1983), except that the incubation time of the platelets with chymotrypsin was reduced from 45 minutes to 20 minutes.

GPIIb-GPIIIa complex = target: T1, GPIIb-GPIIIa complex (Homo sapiens, UniProt P05106+P08514); assay: 125I-trigramin binding to human platelets
T1 construct: endogenous in cells; host or cells: human platelets (resting, ADP-stimulated or chymotrypsin-treated)
Description: There are several similarities between the binding of ^125 I-trigramin and the binding of ^125 I-fibrinogen to human platelets. The binding of both ligands is inhibited by EDTA; by monoclonal antibodies interacting with the GP-IIb-GPIIIa complex (Coller, J. Clin. Invest. 76:101-108 (1985) and Bennett et al., Proc. Natl. Acad. Sci. U.S.A. 80:2417-2421 (1983)); by synthetic peptides representing putative platelet binding sites on the fibrinogen molecule Arg-Gly-Asp-Ser (Gartner et al., J. Biol. Chem. 260:11891-11894 (1985) and Plow et al., Proc. Natl. Acad. Sci. U.S.A. 82:8057-8061 (1985)); and by tyrosyl pentadecapeptide of the C-terminal portion of the gamma chain, […](Kloczewiak et al., Biochemistry 23:1767-1774 (1984). […] These individuals are deficient in the GPIIb-GPIIIa complex.
The binding affinity of trigramin to ADP-stimulated platelets resembles that of monoclonal antibodies.

[3] = target: T2, GPIIb-GPIIIa complex on thrombin-stimulated platelets (Homo sapiens, UniProt P05106+P08514); assay: 125I-von Willebrand Factor binding to thrombin-stimulated human platelets; settings: trigramin 10^-8 M; thrombin 0.5 u/ml; von Willebrand Factor 5 micrograms/ml
T2 construct: endogenous in cells; host or cells: human platelets stimulated with thrombin (0.5 u/ml)
Procedure: (§3) The final concentration of von Willebrand Factor was 5 micrograms/ml. The total specific von Willebrand Factor binding was 380+/-55 ng/10^8 platelets in the control sample. […] It is well known that von Willebrand Factor binds to GPIIb-GPIIIa complex on thrombin-stimulated platelets, and to GPIb on ristocetin-stimulated platelets.

[4] = system: melanoma cells that contain GPIIIa and vitronectin receptor; assay: Melanoma cell adhesion to fibronectin-covered substrata and cell spreading; type: cell-based
Description: We have also observed an interaction between trigramin and melanoma cells that contain GPIIIa and vitronectin receptor. […] In the system tested, the biological activity of 0.2 nmoles of trigramin corresponded to 100 nmoles of the peptide glycine-arginine-glycine-aspartic acid-serine ("GRGDS"). This observation is interesting in view of the successful efforts of Humphries et al., Science 233: 467-470 to inhibit metastases of a melanoma cell line in mice by GRGDS.

Stability to proteolysis = type: in vitro ADME
[5] = target: T3, fibrinogen receptors on platelets associated with the GPIIb-GPIIIa complex (Homo sapiens, UniProt P05106+P08514); assay: 125I-fibrinogen binding to ADP-stimulated human washed platelets; settings: ADP 10 micromolar-stimulated platelets; double-reciprocal plot FIG. 1; read-out: inhibition constant, Ki (competitive inhibition of fibrinogen binding)
T3 construct: Human washed platelet suspension was prepared; endogenous in cells; host or cells: washed human platelets, stimulated with 10 micromolar ADP
Procedure: as §1

platelets = assay: Platelet aggregation induced by prostaglandin endoperoxide analogue or thrombin; type: cell-based, human; settings: isolated platelet suspension
[6] = Elimination from the circulation; settings: in vivo
[7] = Phospholipase A activity of the HPLC-purified material; type: biochemical
Procedure: A high performance liquid chromatography column (250×4.6 mm) containing a wide-pore C-18 silica matrix (e.g., VYDAC TPRP, The Separations Group, Hesperia, Calif.) is equilibrated at 20° C. in 0.1% trifluoroacetic acid. 150 micrograms of the above-prepared crude material in 200 microliters of 0.15M NaCl is injected into the column at a flow rate of 1.0 ml/min. The column is washed for 3 minutes. Fractions are eluted over 50 minutes with a gradient of 0-55% acetonitrile. […] The homogeneity of the purified material is confirmed by SDS-polyacrylamide gel electrophoresis with a silver stain (1 microgram). Trigramin appears as a single band with apparent molecular weight of about 9 kd on 20% gels.

[8] = target: T4, GPIb on ristocetin-stimulated platelets (Homo sapiens, UniProt P07359); assay: 125I-von Willebrand Factor binding to ristocetin-stimulated platelets; settings: ristocetin 0.75 mg/ml
T4 construct: endogenous in cells; host or cells: platelets stimulated with ristocetin (0.75 mg/ml)
Procedure: as §3

[9] = system: chymotrypsin-treated platelets; assay: Fibrinogen-induced aggregation of chymotrypsin-treated platelets (turbidimetric); type: cell-based, human; settings: fibrinogen alone, without ADP, 37° C.; read-out: IC50 for inhibition of chymotrypsin-treated platelets (aggregation)
Procedure: as §2
(§4) Various doses of trigramin (0.25-5.0 microgram/ml) were added to 420 microliters of platelet suspension (3×10^8 platelets per ml). One minute later, 10 microliters ADP (10 micromolar) and 10 microliters fibrinogen (200 micrograms) were added to initiate platelet aggregation. The same procedure using fibrinogen alone (without ADP) was carried out to induce aggregation of the chymotrypsin-treated platelets. The extent of platelet aggregation in each system was measured at 37° C. by the turbidimetric method of Born et al., J. Physiol. (Lond.) 168:178-195 (1963).

Solubility in water = type: physicochemical
ADP-stimulated platelets = assay: Fibrinogen-induced aggregation of ADP-stimulated platelets in suspension (turbidimetric); type: cell-based, human; settings: ADP 10 micromolar, fibrinogen 200 micrograms/ml, 37° C.; read-out: IC50 for inhibition of aggregation of ADP-stimulated platelets
Procedure: as §2, §4

CC#CCC(C)[C@H](O)/C=C/[C@@H]1[C@H]2C/C(=C/CCCC(=O)O)C[C@H]2C[C@H]1O (stereo partly drawn) [Iloplrost, reference compound]
time until bleeding ceased after the completion of the infusion ([1]; one hamster, positive control, 2 ng/kg/min): approximately 9 minutes

trigramin
pIC50 [2]: 7.96 | bleeding time after cessation of infusion ([1]; hamster, infusion 80 micrograms/kg/min, FIG. 4): rapid return of bleeding time to normal values | bleeding time of the hamster mesentery during continuous infusion ([1]; i.v. infusion, dose-dependent, control bleeding time 3.02 minutes+/-0.43, FIG. 3): markedly increased | binding affinity of 125I-trigramin relative to 125I-fibrinogen, judged on dissociation constants (GPIIb-GPIIIa complex; ADP-stimulated platelets): approximately 15 fold | binding to platelets of patients with Glanzmann's thrombasthenia (GPIIb-GPIIIa complex; platelets deficient in the GPIIb-GPIIIa complex): Neither trigramin nor fibrinogen was observed to bind sufficiently | number of trigramin binding sites relative to total number of fibrinogen binding sites exposed by ADP (GPIIb-GPIIIa complex; similar on resting, ADP-stimulated and chymotrypsin-treated platelets): 50% | blocking of von Willebrand Factor binding to thrombin-stimulated human platelets [3]: specifically blocks | adhesion of melanoma cells to fibronectin-covered substrata [4]: blocks the adhesion | melanoma cell spreading [4]: inhibits cell spreading | amount giving corresponding biological activity in the melanoma cell system ([4]; 0.2 nmoles of trigramin corresponded to 100 nmoles of GRGDS): 0.2 nmoles | stability to proteolysis (Stability to proteolysis): relatively stable to proteolysis | pKi [5]: 7.70 | inhibition of platelet aggregation induced by 9,11-dideoxy-9,11-methanoepoxy-PGF2-alpha (platelets; agonist 2.5 micromolar): inhibited platelet aggregation | inhibition of platelet aggregation induced by thrombin (platelets; thrombin 0.5 units/ml): inhibited platelet aggregation | elimination from the circulation [6]: eliminated from the circulation rapidly | phospholipase A activity [7]: devoid of phospholipase A activity | blocking of von Willebrand Factor binding to ristocetin-stimulated platelets [8]: does not block | pIC50 [9]: 7.55 | solubility in water (Solubility in water): soluble in water | pIC50 (ADP-stimulated platelets): 6.89
